60 compounds from patent US5814646A, “Inhibitors of amyloid beta-protein production” (Eli Lilly and Company, priority 1995, dated 1998) can be followed below.

pIC50: −log10 of the molar value.

In the first assay the test system is Aβ production in 293 751 SWE and CHO 751 SWE cells (transfected with APP-751 Swedish mutation). The assay can be described thus: Aβ production inhibition activity in cells (Aβ ELISA of conditioned media, normalized for cytotoxicity by MTT). The format is cell-based. To be noted: 5 μg/ml. The protocol:
Two cell lines (human kidney cell line 293 and Chinese hamster ovary cell line CHO) were stably transfected with the gene for APP-751 containing the double mutation Lys651 -Met652 to Asn651 -Leu652 (APP-751 numbering) commonly called the Swedish mutation using the method described in Citron et al., (1992) Nature 360:672-674. The transfected cell lines were designated as 293 751 SWE and CHO 751 SWE, and were plated in Corning 96 well plates at 2.5×10^4 or 1×10^4 cells per well respectively in Dulbecco's minimal essential media plus 10% fetal bovine serum. Following overnight incubation at 37° C. in an incubator equilibrated with 10% carbon dioxide (CO2), the media were removed and replaced with 200 μL per well of media containing a test compound. After a two hour pretreatment period, the media were again removed and replaced with fresh media containing the test compound and the cells were incubated for an additional two hours.
Test compound stocks were prepared in DMSO such that at the final concentration used in the treatment, the concentration of DMSO did no exceed 0.5%. After treatment, plates were centrifuged in a Beckman GPR at 1200 rpm for five minutes at room temperature to pellet cellular debris from the conditioned media. From each well, 100 μL of conditioned media were transferred into an ELISA plate precoated with antibody 266 against βAP-13-28 (Seubert et al., supra.) and stored at 4° C. overnight. An ELISA assay employing labeled antibody 6C6 (against βAP-1-16) was run the next day to measure the amount of Aβ produced.
Cytotoxic effects of the test compounds were measured by a modification of the method of Hansen et al., (1989) J. Immun. Meth. 119:203-210. To the cells remaining in the tissue culture plate, was added 25 μL of a 3, (4,5-dimethylthiazol-2-yl)2,5-diphenyltetrazolium bromide (MTT) stock solution (5 mg/mL) to a final concentration of […]. Cells were incubated at 37° C. for one hour, and cellular activity was stopped by the addition of an equal volume of MTT lysis buffer (20% w/v sodium dodecylsulfate in 50% DMF, pH 4.7). Complete extraction was achieved by overnight shaking at room temperature. The difference in the OD562 nm and the OD650 nm was measured in a Molecular Devices UVmax microplate reader as an indicator of the cellular viability.
The results of the Aβ ELISA were fit to a standard curve and expressed as ng/mL Aβ peptide. In order to normalize for cytotoxicity, these Aβ results were divided by the MTT results and expressed as a percentage of the results from a drug -free control.
The test compounds were assayed for Aβ production inhibition activity in cells at […] using the test. The results presented in Table 1 are the mean and standard deviation of at least six replicate assays. IC50 means the concentration of test compound in micromoles/liter required to inhibit Aβ production by 50%.
In the case of `CCCCCCNC(=S)N(O)Cc1ccc(OCc2cc(OC)cc(OC)c2)cc1` [Compound 61], the inhibition at 5 µg/mL stood at 28%. `CCCCc1ccc(COc2ccc(CN(O)C(=S)NCc3ccccc3)cc2)cc1` [Compound 62] gave an inhibition at 5 µg/mL of 17%.

`CC(c1cccc(NC(=O)c2ccc(C(C)(C)C)cc2)c1)N(O)C(=S)NCc1ccccc1` (stereo not drawn) [Compound 99] came in with an inhibition at 5 µg/mL of 43%.

On to `ON(Cc1ccc(-c2ccccc2)cc1)C(=S)NCc1ccccc1` [Compound 77], for which the inhibition at 5 µg/mL came to 2%.

For the compound `CCCCCCNC(=S)N(O)Cc1ccc(-c2ccccc2)cc1` [Compound 78], the inhibition at 5 µg/mL stood at 24%.

The assay is the same for the next values; noted with them: 10 μg/ml, % of drug-free control, normalized to MTT.
Take `CC(C)(C)c1ccc(S(=O)(=O)c2cccc(CN(O)C(=S)NCc3ccccc3)c2)cc1` [Compound 92]: the inhibition at 10 µg/mL stood at 25%. For the compound `CCCc1cc(C(C)(C)C)ccc1Oc1ccc(NC(=S)Nc2ccc(C)c(C)c2)cc1` [Compound 196], 10 µg/mL produced 44% inhibition. As to `CC(c1cccc(Oc2ccc(C(C)(C)C)cc2)c1)N(O)C(=S)NCc1ccc(Cl)c(Cl)c1` (stereo not drawn) [Compound 2], the inhibition at 10 µg/mL turned out to be 77%. Compound `CCCCCCC(c1cccc(Oc2ccc(C(C)(C)C)cc2)c1)N(O)C(=S)NCc1ccccc1` (stereo not drawn) [Compound 36] registered an inhibition at 10 µg/mL of 26%. `CC(C)(C)c1ccc(Oc2ccccc2NC(=S)NCc2ccc(Cl)c(Cl)c2)cc1` [Compound 183] came in with an inhibition at 10 µg/mL of 24%. `CCC(c1cccc(Oc2ccc(C(C)(C)C)cc2)c1)N(O)C(=S)Nc1cccc(C(F)(F)F)c1Cl` (stereo not drawn) [Compound 22] registered an inhibition at 10 µg/mL of 10%. `CSc1cccc(NC(=O)Nc2nnc(C)s2)c1` [Compound 252] gave an inhibition at 10 µg/mL of 25%. For the compound `CC(NC(=S)N(O)C(C)c1cccc(Oc2ccc(C(C)(C)C)cc2)c1)c1ccccc1` (stereo not drawn) [Compound 13], the inhibition at 10 µg/mL was 46%.

`CCCCCCNC(=S)N(Cc1cccc(Oc2ccc(C(C)(C)C)cc2)c1)OC` [Compound 43] showed an inhibition at 10 µg/mL of 16%. In the case of `CCCc1c(NC(=S)Nc2ccc(C(C)(C)C)cc2)ccc(C(=O)c2ccccc2)c1O` [Compound 203], 10 µg/mL produced 2% inhibition. As to `O=C(Nc1ccc(Cl)c(Cl)c1)c1ncco1` [Compound 241], the “Aβ Production Inhibition Activity, % inhibition at 10 μg/ml” value was -8%.

Compound `CC(C)(C)c1ccccc1Oc1ccc(NC(=S)Nc2ccc(Cl)c(C(F)(F)F)c2)cc1` [Compound 174] displayed an inhibition at 10 µg/mL of 66%. As for `CCN1CCCC(C(=O)Nc2ccc(Cl)c(Cl)c2)C1` (stereo not drawn) [Compound 230], the “Aβ Production Inhibition Activity, % inhibition at 10 μg/ml” value amounted to 28%. `CC(C)(C)c1ccc(-c2ccc(CN(O)C(=S)NCc3ccccc3)cc2)cc1` [Compound 81] came in with an inhibition at 10 µg/mL of 20%. `Cc1cccc(CNC(=S)N(O)Cc2ccc(OCc3c(Cl)cccc3Cl)cc2)c1` [Compound 65]: at 10 µg/mL the inhibition was 7%.

For the compound `CC(C)(C)c1ccc(Oc2ccc(NC(=S)Nc3ccc(Cl)cc3)cc2)cc1` [Compound 191], 10 µg/mL produced 33% inhibition. The same measure, in the same setting: next, `CC(c1cccc(Oc2ccc(C(C)(C)C)cc2)c1)N(O)C(=S)NC(c1ccccc1)c1ccccc1` (stereo not drawn) [Compound 14]: 44%.

Staying with this assay, now noted: 2 h pretreatment + 2 h incubation.
`S=C(NCc1ccccc1)Nc1ccc(Cl)c(Cl)c1` [Compound 146]: the pIC50 is 4.66. With `CC(c1cccc(OCc2ccc(C(C)(C)C)cc2)c1)N(O)C(=S)NCc1ccccc1` (stereo not drawn) [Compound 75], the pIC50 was 5.05. With `CCCCCCNC(=S)N(O)C(CC)c1cccc(Oc2ccc(C(C)(C)C)cc2)c1` (stereo not drawn) [Compound 24], the pIC50 is 5.06. `CC(NC(=S)NCc1ccccc1)c1cccc(Oc2ccc(C(C)(C)C)cc2)c1` (stereo not drawn) [Compound 39]: the pIC50 was 4.98. Turning to `CCCCCCNC(=S)N(O)Cc1ccc(COc2ccc(C(C)(C)CC)cc2)cc1` [Compound 96], the pIC50 is 4.61.

On to `CC(C)(C)c1ccc(Oc2cccc(CN(O)C(=S)NCc3ccc(Cl)c(Cl)c3)c2)cc1` [Compound 28], for which the pIC50 was 5.38. Take `CC(C)(C)c1cc(C(=O)Nc2ccc(Cl)c(Cl)c2)on1` [Compound 245]: the pIC50 is 5.01. Turning to `CC(C)(C)c1ccc(Oc2ccc(NC(=S)NCC3CCCNC3)cc2)cc1` (stereo not drawn) [Compound 127], the pIC50 was 4.93.

As to `O=C(Nc1ccc(Cl)c(Cl)c1)c1nc(C(F)(F)F)no1` [Compound 247], the pIC50 is 5.36. As for `CC(c1cccc(Oc2ccc(C(C)(C)C)cc2)c1)N(O)C(=S)NCc1cccc(F)c1` (stereo not drawn) [Compound 18], the pIC50 is 4.74.

As to `CC(C)(C)c1ccc(Oc2ccc(CSC(=S)NCc3ccccc3)cc2)cc1` [Compound 198], the pIC50 was 5.00. Take `CCCC(c1cccc(Oc2ccc(C(C)(C)C)cc2)c1)N(O)C(=S)NCc1ccccc1` (stereo not drawn) [Compound 29]: the pIC50 is 5.12. As for `CC(C)(C)c1ccc(Oc2ccc(NC(=S)NCc3cccc(F)c3)cc2)cc1` [Compound 112], the negative-log IC50 (pIC50) was 5.12. `CC(C)(C)c1ccc(SCc2ccc(CN(O)C(=S)Nc3ccc(Cl)c(C(F)(F)F)c3)cc2)cc1` [Compound 95]: the pIC50 was 5.34.

In the case of `COc1cccc(CNC(=S)Nc2ccc(Oc3ccc(C(C)(C)C)cc3)cc2)c1` [Compound 110], the pIC50 was 4.67. `CC(C)(C)c1cccc(Oc2cccc(NC(=S)Nc3ccc(Cl)c(C(F)(F)F)c3)c2)c1` [Compound 172]: the pIC50 was 5.42. The same measure, in the same setting: next, `CC(C)(C)c1ccc(Oc2cccc(CNC(=S)NCc3ccccc3)c2)cc1` [Compound 40]: 5.04; `CCC(c1cccc(Oc2ccc(C(C)(C)C)cc2)c1)N(O)C(=S)Nc1ccc(Cl)c(C(F)(F)F)c1` (stereo not drawn) [Compound 23]: 4.96. In the case of `CC(C)(C)c1ccc(Oc2ccc(NC(=S)NCc3ccncc3)cc2)cc1` [Compound 122], the pIC50 was 4.63.

With `CCCCCCNC(=S)N(O)Cc1cccc(Sc2ccc(C(C)(C)C)cc2)c1` [Compound 87], the pIC50 was 5.00. Turning to `Cc1cc2nc(NC(=O)Nc3ccc(Cl)c(Cl)c3)[nH]c2cc1C` [Compound 143], the negative logarithm of the IC50 (pIC50) was 4.83.

For `CCCCCCNC(=S)N(O)Cc1cccc(Oc2ccc(C(C)(C)C)cc2CCC)c1` [Compound 102], the pIC50 was 5.21.

For `O=C(Nc1ccc(Cl)c(Cl)c1)Nc1nc2ccccc2[nH]1` [Compound 140], the negative-log IC50 (pIC50) was 4.76. Same read-out and setting: next, `CC(C)(C)c1ccc(Oc2ccccc2N(O)C(=S)Nc2ccc(Cl)c(C(F)(F)F)c2)cc1` [Compound 171]: 4.97; `Cc1ccccc1CNC(=S)N(O)C(C)c1cccc(Oc2ccc(C(C)(C)C)cc2)c1` (stereo not drawn) [Compound 5]: 4.99; `CSc1ccc(NC(=O)Nc2ccc(Cl)c(Cl)c2)cc1Br` [Compound 150]: 5.28. In the case of `CC(C)(C)c1ccc(Oc2ccc(NC(=S)NCc3cccc(Br)c3)cc2)cc1` [Compound 107], the pIC50 was 5.14. `CC(C)(C)c1ccc(Oc2ccc(NC(=S)NCc3ccc(Br)cc3)cc2)cc1` [Compound 108]: the pIC50 is 5.05. Consider `CC(C)(C)c1ccc(COc2cccc(CN(O)C(=S)NCc3ccccc3)c2)cc1` [Compound 49], for which the pIC50 is 5.17.

Turning to `CC(C)(C)c1nnc(NC(=O)Nc2ccc(Cl)c(Cl)c2)s1` [Compound 237, 1-(5-t-butyl-1,3,4-thiadiazol-2-yl)-3-(3,4-dichlorophenyl)urea], the pIC50 is 5.54. `CCCc1cc(C(C)(C)C)ccc1Oc1cccc(CN(O)C(=O)Nc2ccc(Cl)c(C(F)(F)F)c2)c1` [Compound 103]: the pIC50 was 4.70. With `O=C(Nc1ccc(Cl)c(Cl)c1)Nc1nc2ccccc2s1` [Compound 137], the pIC50 was 4.99. On to `FC(F)(F)c1cc(NC(=S)Nc2ccc(Cl)c(C(F)(F)F)c2)ccc1Cl` [Compound 166], for which the pIC50 is 5.55.

On to `CC(C)(C)c1ccc(Oc2ccc(NC(=S)NCc3ccc(F)cc3C(F)(F)F)cc2)cc1` [Compound 132], for which the pIC50 was 5.10.

`CC(C)(C)c1ccc(Sc2ccc(CN(O)C(=S)NCc3ccccc3)cc2)cc1` [Compound 88]: the negative logarithm of the IC50 (pIC50) is 5.12. Turning to `CC(C)(C)c1ccc(Oc2cccc(CN(O)C(=S)NCc3ccccc3)c2)cc1` [Compound 26], the pIC50 was 5.47. With `CC(C)(C)c1ccc(Oc2ccc(NC(=S)NCCCCc3ccccc3)cc2)cc1` [Compound 118], the pIC50 was 4.79. For the compound `CCC(c1cccc(Oc2ccc(C(C)(C)C)cc2)c1)N(O)C(=S)NCc1ccccc1` (stereo not drawn) [Compound 20], the pIC50 is 5.44.
